Assay results reported in patent US20260097091A1, “ADMINISTRATION OF GLUTATHIONE TRISULFIDE TO AMELIORATE PERIPHERAL NEUROPATHY” (The General Hospital Corporation, priority 2022, published 2026).

Legend:
[1] = tested on: intraepidermal nerve fibers of hind paws; assay: density of intraepidermal nerve fibers in hind paw skin (immunohistochemistry); type: in vivo, mice (C57BL/6J); conditions: for density of intraepidermal nerve fibers: paclitaxel alone
Protocol: Paclitaxel (Sigma-Aldrich) was dissolved with ethanol and cremophor (1:1) and diluted with normal saline (1:4). Peripheral neuropathy was induced in mice by intraperitoneal (i.p.) administration of 4 mg/kg paclitaxel every other day for a total of 4 injections (cumulative dose of 16 mg/kg), according to a previously described protocol. A stable, crystallized form of GSSSG was produced and provided by Kyowa Hakko Bio CO., LTD. GSSSG was pulverized and mixed in 0.5% methylcellulose. To evaluate the therapeutic effects of GSSSG in a model of PIPN, mice were randomly divided into three groups of 6. Mice were treated with: 1) paclitaxel alone; 2) paclitaxel and GSSSG; 3) or vehicle alone (control). Mice in groups 1 and 2 received paclitaxel as described above, while mice in the control group received the same volume of vehicle. The first dose of GSSSG was given within 1 hour after the first PTX injection. Treatment was administered as oral gavage for 28 days with GSSSG at 50 mg/kg/day (group 2) or 0.5% methylcellulose (groups 1 and 3). The dose of GSSSG was determined based on pilot studies. To determine the effect of GSSSG on the development of PIPN, behavioral tests to assess allodynia and hyperalgesia were conducted on all mice on days-1 (baseline), 7, 14, 21, and 28 after paclitaxel administration. Behavioral tests were performed by an investigator who was blinded to the treatment groups, as described in the next section. Density of intraepidermal nerve fiber (fibers/mm) of hind paws was calculated to evaluate peripheral nerve fiber damage by paclitaxel. Mice were deeply anesthetized with Isoflurane (4%) and euthanized by exsanguination on week 1 or week 4 after paclitaxel treatment for tissue harvest. […] Ten images per mouse (6 mice per group) were taken by fluorescence microscopy (Nikon Eclipse 80i, Nikon Instruments, Inc., Melville, NY), and four out of ten images were randomly selected. The density (fibers/mm basement membrane) was calculated as the number of intraepidermal nerve fiber divided by the length of basement membrane in accordance with the guideline.

[2] = tested on: MDA-MB-231 human breast cancer cells; assay: MDA-MB-231 live cell count by trypan blue exclusion assay; type: cell-based; conditions: 24 hours
Protocol: To examine whether co-administration of GSSSG affects anti-tumor effects of paclitaxel, we conducted experiments using MDA-MB-231, a human breast cancer cell line (HTB-26, ATCC). Cells were cultured in the medium of 90% RPMI1640 (Corning, Cat No. 10-040-CV), 10% FBS, and 1% penicillin/streptomycin. After being seeded into a 96-well plate at the density of 20,000/well and cultured overnight, they were exposed to different concentrations of paclitaxel (0.125 μM, 0.25 μM, 0.5 μM, 1 μM, and 2 μM) and incubated for 24 hours. Cell viability was evaluated by LDH Cytotoxicity Detection Kit (Roche, Cat No. 11644793001). Briefly, a plate was centrifuged at 250×g for 10 minutes. […] After mixing with assay enzyme for 30 minutes at 25° C., absorbance was measured at wavelength 492 nm to determine cell viability. Inhibitory effects of paclitaxel were calculated by half-maximal inhibitory concentration (IC50). […] After being stripped by 0.25% trypsin, live cells were counted under 0.04% trypan blue. Five wells were evaluated per group.
Sample sizes for behavior test were chosen based on a previous study. All values are expressed as mean±standard deviation (SD). The behavior test results were analyzed in the mixed effect model because the behavior was measured repeatedly over five times from the same mice, and individual differences at baseline were confirmed in the preliminary study. […]

Compound	paclitaxel-induced loss of intraepidermal nerve fibers ([1]; daily oral 50 mg/kg GSSSG in paclitaxel-treated mice, 4 weeks after starting paclitaxel)	number of alive MDA-MB-231 cells ([2]; 2 μM paclitaxel + 10 μM GSSSG)	density of intraepidermal nerve fibers ([1]; 1 week after starting paclitaxel)	density of intraepidermal nerve fibers ([1]; 4 weeks after starting paclitaxel)	number of alive MDA-MB-231 cells ([2]; 2 μM paclitaxel alone)
N[C@@H](CCC(=O)N[C@@H](CSSSC[C@H](NC(=O)CC[C@H](N)C(=O)O)C(=O)NCC(=O)O)C(=O)NCC(=O)O)C(=O)O [GSSSG, glutathione trisulfide]	prevented paclitaxel-induced loss of intraepidermal nerve fibers	48.3 % of control cells			
CC(=O)O[C@H]1C(=O)[C@@]2(C)[C@H]([C@H](OC(=O)c3ccccc3)[C@]3(O)C[C@H](OC(=O)[C@H](O)[C@@H](NC(=O)c4ccccc4)c4ccccc4)C(C)=C1C3(C)C)[C@]1(OC(C)=O)CO[C@@H]1C[C@@H]2O [paclitaxel, Paclitaxel, reference compound]			not at 1 week	decreased the density of intraepidermal nerve fibers at 4 weeks	44.9 % of control cells
